# Measurements: paper PMC10046769, “An Impedimetric Biosensor for Detection of Volatile Organic Compounds in Food” (Biosensors, 2023)
# Biological target: T1, pig odorant-binding protein (pOBP) (Sus scrofa, UniProt P81245)
# T1 construct: recombinant pOBP, GST tag removed by thrombin; monomer of 157 amino acids
# T1 sequence (P81245 1-157): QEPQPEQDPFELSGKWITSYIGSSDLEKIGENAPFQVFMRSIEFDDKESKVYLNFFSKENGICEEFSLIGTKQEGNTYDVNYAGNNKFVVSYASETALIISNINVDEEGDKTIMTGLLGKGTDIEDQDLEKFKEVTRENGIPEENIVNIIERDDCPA
# Assay: competitive FRET displacement of 1-AMA; also impedance (EIS) with immobilised pOBP
smiles,measurement,value
C=CC(O)CCCCC (stereo not shown) [1-octen-3-ol],Kd,18.5 mM
